As a reminder, the IC50 is the concentration needed to halve the response being measured. Usually EC50 stands for the concentration at which the effect is half-maximal.

The structures appear in SMILES notation.

Here are results for 23 compounds from US11976072B2, “Diacylglycerol kinase modulating compounds” (priority 2021, dated 2024).

Assay [1] concerns the target human DGKα (Homo sapiens, UniProt P23743). As to the kind of experiment: DGKα Biochemical Activity Assay (ADP-Glo).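 Further: luminescent detection of ADP produced as DGKα phosphorylates DAG to phosphatidic acid, IC50 from four-parameter nonlinear curve fit.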 The note with it: recombinant DGKα 1 nM, 100 μM ATP, 18:1 DAG/POPS/octylglucoside micelles, 1 hour at 25° C.; geometric mean; read-out: HTBS DGKa 1X ATP KM IC50. On the technique in general: In ADP-Glo the light output rises with the ADP produced.
Source text: Alternatively, the enzymatic activity of human DGKα was monitored in a biochemical assay in the presence or absence of compounds and using micelles containing 18:1 Diacylglycerol (DAG), 16:0-18:1 PS (POPS) and Octylglucoside as substrate. DGKα activity led to conversion of DAG and ATP to Phosphatidic Acid (PA) and ADP. Levels of ADP were monitored by bioluminescence using the ADP-Glo Kinase Assay (Promega) and were indicative of DGKα activity.
Recombinant DGKα (Carna Biosciences) in assay buffer (5 μL in 50 mM MOPS [3-(N-morpholino) propanesulfonic acid], pH 7.2; 0.0025% Triton X-100; 1 mM dithiothreitol; 5 mM MgCl2, 200 μM ATP) was added to the compound-containing plate and was incubated for 15 minutes at 25° C. […] The reaction mixture was incubated at 25° C. for 1 hour. ADP-Glo Reagent (10 μL, 10 mM Mg added) provided by the kit was added to each well and incubated at 25° C. for 40 minutes. Then, 20 μL of Kinase Detection Reagent was added and incubated at 25° C. for 40 minutes. Luciferase activity of each well was measured via luminescence on an Envision plate reader (PerkinElmer).
Least squares curve fittings were performed using a four-parameter variable slope nonlinear regression model. […] IC50 values from multiple experiments were averaged by geometric mean and the standard deviation was calculated.
The subject of assay [2] is Jurkat NFκB-luciferase cells. As to the kind of experiment: Jurkat NFκB-Luciferase Assay. Type of assay: cell-based. The settings on record: Homo sapiens; Jurkat NFκB-luciferase cells activated with anti-CD3 antibody (OKT3), 2.5 hrs at 37° C.; geometric mean; read-out: DGK NFKb Luciferase EC50. In short, it runs like this: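 Jurkat NFκB-luciferase reporter cells at 1 million cells/ml in RPMI with 10% FBS were added to antibody-coated, compound-containing wells. Luciferase activity read by One-Glo Ex luminescence 7 minutes after reagent addition.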

Sequence of human DGKα (P23743 whole entry): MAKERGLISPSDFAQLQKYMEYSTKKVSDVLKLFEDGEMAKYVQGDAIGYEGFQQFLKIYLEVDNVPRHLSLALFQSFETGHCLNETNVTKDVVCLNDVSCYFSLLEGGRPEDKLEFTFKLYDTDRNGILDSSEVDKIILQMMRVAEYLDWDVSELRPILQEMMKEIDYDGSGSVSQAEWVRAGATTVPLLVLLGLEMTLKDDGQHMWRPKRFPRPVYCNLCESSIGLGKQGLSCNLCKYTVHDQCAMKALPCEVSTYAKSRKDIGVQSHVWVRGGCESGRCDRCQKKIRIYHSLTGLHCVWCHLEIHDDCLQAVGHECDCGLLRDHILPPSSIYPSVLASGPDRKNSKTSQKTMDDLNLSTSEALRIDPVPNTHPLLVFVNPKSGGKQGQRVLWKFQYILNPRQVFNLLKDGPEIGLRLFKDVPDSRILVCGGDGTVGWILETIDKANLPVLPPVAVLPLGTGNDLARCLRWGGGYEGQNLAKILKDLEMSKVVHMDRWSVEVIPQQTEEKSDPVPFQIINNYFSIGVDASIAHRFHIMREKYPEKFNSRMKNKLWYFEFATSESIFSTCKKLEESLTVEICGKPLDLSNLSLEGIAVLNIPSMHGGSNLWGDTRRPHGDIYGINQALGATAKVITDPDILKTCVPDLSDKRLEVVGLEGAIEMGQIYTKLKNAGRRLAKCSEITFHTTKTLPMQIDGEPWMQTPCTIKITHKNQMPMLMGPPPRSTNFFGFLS

For the compound `Cc1nnc2nc(N3CCCc4c(C#CC5CCCCO5)cccc43)c3c(F)cccc3n12` (stereo not shown) [Example 129, 6-fluoro-1-methyl-5-(5-((tetrahydro-2H-pyran-2-yl)ethynyl)-3,4-dihydroquinolin-1(2H)-yl)-[1,2,4]triazolo[4,3-a]quinazoline], the IC50 in assay [1] was 7.55 nM. Besides, in assay [2], the EC50 was found to be 1.22 nM.
For `Cc1nnc2nc(N3CCCc4c(C#CC5CCCCO5)cccc43)c3cc(F)ccc3n12` (stereo not shown) [Example 130, 7-fluoro-1-methyl-5-(5-((tetrahydro-2H-pyran-2-yl)ethynyl)-3,4-dihydroquinolin-1(2H)-yl)-[1,2,4]triazolo[4,3-a]quinazoline], in assay [1], the IC50 was 4.19 nM. In assay [2], the concentration giving a half-maximal response (EC50) amounted to 1.98 nM.
The corresponding values for `Cc1nnc2nc(N3CCCc4c(C#CC5CC5)cccc43)c3c(F)c(F)ccc3n12` [Example 131, 5-[5-(2-cyclopropylethynyl)-3,4-dihydro-2H-quinolin-1-yl]-6,7-difluoro-1-methyl-[1,2,4]triazolo[4,3-a]quinazoline] are 8.68 nM and 2.14 nM.
For `Cc1nnc2nc(N3CCOCc4c3ccnc4C#CC3(C)CC3)c3cc(F)ccc3n12` [Example 132, 1-(7-fluoro-1-methyl-[1,2,4]triazolo[4,3-a]quinazolin-5-yl)-6-((1-methylcyclopropyl)ethynyl)-1,2,3,5-tetrahydropyrido[4,3-e][1,4]oxazepine] the same measures were 3.1 nM and 6.64 nM.
For `Cc1nnc2nc(N3CCOCc4c3ccnc4C#CC3(C(C)(F)F)CC3)c3cc(F)ccc3n12` [Example 133, 6-((1-(1,1-difluoroethyl)cyclopropyl)ethynyl)-1-(7-fluoro-1-methyl-[1,2,4]triazolo[4,3-a]quinazolin-5-yl)-1,2,3,5-tetrahydropyrido[4,3-e][1,4]oxazepine] the same measures were 15.1 nM and 5.69 nM.
Consider `Cc1nnc2nc(N3CCOCc4c3ccnc4C#CC(C)(C)C(F)(F)F)c3cc(F)ccc3n12` [Example 134, 1-(7-fluoro-1-methyl-[1,2,4]triazolo[4,3-a]quinazolin-5-yl)-6-(4,4,4-trifluoro-3,3-dimethylbut-1-yn-1-yl)-1,2,3,5-tetrahydropyrido[4,3-e][1,4]oxazepane], for which the IC50 in assay [1] was determined as 9.88 nM. For the same compound, the EC50 in assay [2] stood at 8.21 nM.
The corresponding values for `Cc1nnc2nc(N3CCOCc4c3ccnc4C#CC3(C(F)F)CC3)c3c(F)cccc3n12` [Example 135, 6-((1-(difluoromethyl)cyclopropyl)ethynyl)-1-(6-fluoro-1-methyl-[1,2,4]triazolo[4,3-a]quinazolin-5-yl)-1,2,3,5-tetrahydropyrido[4,3-e][1,4]oxazepine] are 5.49 nM and 6.06 nM.
For `Cc1nnc2nc(N3CCOCc4c3ccnc4C#CC(C)(C)C(F)F)c3c(F)cccc3n12` [Example 136, 6-(4,4-difluoro-3,3-dimethylbut-1-yn-1-yl)-1-(6-fluoro-1-methyl-[1,2,4]triazolo[4,3-a]quinazolin-5-yl)-1,2,3,5-tetrahydropyrido[4,3-e][1,4]oxazepine] the same measures were 11.1 nM and 13.9 nM.
The corresponding values for `Cc1nnc2nc(N3CCOCc4c3ccnc4C#CC(C)(C)NC(=O)C3(C(F)(F)F)CC3)c3c(F)cccc3n12` [Example 137, N-(4-(1-(6-fluoro-1-methyl-[1,2,4]triazolo[4,3-a]quinazolin-5-yl)-1,2,3,5-tetrahydropyrido[4,3-e][1,4]oxazepin-6-yl)-2-methylbut-3-yn-2-yl)-1-(trifluoromethyl)cyclopropane-1-carboxamide] are 17.7 nM and 106 nM.
Turning to `Cc1nnc2nc(N3CCOCc4c(C#CC(C)(C)NC(=O)c5cn(C)nc5C(F)(F)F)cccc43)c3c(F)cccc3n12` [Example 138, N-(4-(1-(6-fluoro-1-methyl-[1,2,4]triazolo[4,3-a]quinazolin-5-yl)-1,2,3,5-tetrahydrobenzo[e][1,4]oxazepin-6-yl)-2-methylbut-3-yn-2-yl)-1-methyl-3-(trifluoromethyl)-1H-pyrazole-4-carboxamide], the IC50 in assay [1] is 28.9 nM. The EC50 in assay [2] was 43.3 nM.
Take `Cc1nnc2nc(N3CCOCc4c(C#CC(C)(C)NC(=O)c5cn(C)nc5C(F)F)cccc43)c3c(F)cccc3n12` [Example 139, 3-(difluoromethyl)-N-[3-[1-(6-fluoro-1-methyl-[1,2,4]triazolo[4,3-a]quinazolin-5-yl)-3,5-dihydro-2H-4,1-benzoxazepin-6-yl]-1,1-dimethyl-prop-2-ynyl]-1-methyl-pyrazole-4-carboxamide]: in assay [1], the IC50 stood at 72.6 nM. In addition, in assay [2], the EC50 came to 41.3 nM.
The corresponding values for `Cc1nnc2nc(N3CCOCc4c3ccnc4C#CC(C)(C)C(F)(F)F)c3c(F)cccc3n12` [Example 140, 1-(6-fluoro-1-methyl-[1,2,4]triazolo[4,3-a]quinazolin-5-yl)-6-(4,4,4-trifluoro-3,3-dimethylbut-1-yn-1-yl)-1,2,3,5-tetrahydropyrido[4,3-e][1,4]oxazepine] are 4.52 nM and 4.36 nM.
Take `Cc1nnc2nc(N3CCOCc4c3ccnc4C#CC3(C)CC3)c3c(F)cccc3n12` [Example 141, 1-(6-fluoro-1-methyl-[1,2,4]triazolo[4,3-a]quinazolin-5-yl)-6-((1-methylcyclopropyl)ethynyl)-1,2,3,5-tetrahydropyrido[4,3-e][1,4]oxazepine]: the IC50 in assay [1] was found to be 4.76 nM. Also, in assay [2], the EC50 stood at 5.11 nM.
Regarding `Cc1nnc2nc(N3CCOCc4c3ccnc4C#CC3(C(C)(F)F)CC3)c3c(F)cccc3n12` [Example 142, 6-((1-(1,1-difluoroethyl)cyclopropyl)ethynyl)-1-(6-fluoro-1-methyl-[1,2,4]triazolo[4,3-a]quinazolin-5-yl)-1,2,3,5-tetrahydropyrido[4,3-e][1,4]oxazepine], the IC50 in assay [1] worked out at 16.4 nM. Moreover, the EC50 in assay [2] turned out to be 5.03 nM.
As for `Cc1nnc2nc(N3CCOCc4c3ccnc4C#CC3(C(F)(F)F)CC3)c3c(F)cccc3n12` [Example 143, 1-(6-fluoro-1-methyl-[1,2,4]triazolo[4,3-a]quinazolin-5-yl)-6-((1-(trifluoromethyl)cyclopropyl)ethynyl)-1,2,3,5-tetrahydropyrido[4,3-e][1,4]oxazepine], the IC50 in assay [1] turned out to be 3.85 nM. For the same compound, in assay [2], the EC50 was determined as 3.61 nM.
With `Cc1nnc2nc(N3CCOCc4c(C#CC(C)(C)NC(=O)C(C)(C)C(F)(F)F)cccc43)c3c(F)cccc3n12` [Example 144, 3,3,3-trifluoro-N-(4-(1-(6-fluoro-1-methyl-[1,2,4]triazolo[4,3-a]quinazolin-5-yl)-1,2,3,5-tetrahydrobenzo[e][1,4]oxazepin-6-yl)-2-methylbut-3-yn-2-yl)-2,2-dimethylpropanamide], the IC50 in assay [1] worked out at 4.73 nM. The EC50 in assay [2] turned out to be 11.1 nM.
In the case of `Cc1nnc2nc(N3CCOCc4c(C#CC5(NC(=O)C6(C(F)(F)F)CC6)CC5)cccc43)c3c(F)cccc3n12` [Example 145, N-(1-((1-(6-fluoro-1-methyl-[1,2,4]triazolo[4,3-a]quinazolin-5-yl)-1,2,3,5-tetrahydrobenzo[e][1,4]oxazepin-6-yl)ethynyl)cyclopropyl)-1-(trifluoromethyl) cyclopropane-1-carboxamide], the IC50 in assay [1] is 6.87 nM. The EC50 in assay [2] is 1.21 nM.
Take `Cc1nnc2nc(N3CCOCc4c(C#CC(C)(C)NC(=O)OC(C)C(F)(F)F)cccc43)c3c(F)cccc3n12` (stereo not shown) [Example 146, 1,1,1-trifluoropropan-2-yl (4-(1-(6-fluoro-1-methyl-[1,2,4]triazolo[4,3-a]quinazolin-5-yl)-1,2,3,5-tetrahydrobenzo[e][1,4]oxazepin-6-yl)-2-methylbut-3-yn-2-yl)carbamate]: the IC50 in assay [1] stood at 3.54 nM. The EC50 in assay [2] is 20.5 nM.
With `Cc1nnc2nc(N3CCOCc4c(C#CC(C)(C)NC(=O)C5(C(F)(F)F)CC5)cccc43)c3c(F)cccc3n12` [Example 147, N-(4-(1-(6-fluoro-1-methyl-[1,2,4]triazolo[4,3-a]quinazolin-5-yl)-1,2,3,5-tetrahydrobenzo[e][1,4]oxazepin-6-yl)-2-methylbut-3-yn-2-yl)-1-(trifluoromethyl) cyclopropane-1-carboxamide], the IC50 in assay [1] was 3.16 nM. For the same compound, the EC50 in assay [2] came to 7.74 nM.
The corresponding values for `Cc1nnc2nc(N3CCOCc4c(C#CC(C)(C)NC(=O)OC(C)(C)C)cccc43)c3c(F)cccc3n12` [Example 148, tert-butyl (4-(1-(6-fluoro-1-methyl-[1,2,4]triazolo[4,3-a]quinazolin-5-yl)-1,2,3,5-tetrahydrobenzo[e][1,4]oxazepin-6-yl)-2-methylbut-3-yn-2-yl)carbamate] are 4.36 nM and 6.03 nM.
For `Cc1nnc2nc(N3CCCc4c(C#CC(C)(C)NC(=O)OC(C)C(F)(F)F)cccc43)c3c(F)cccc3n12` (stereo not shown) [Example 149, 1,1,1-trifluoropropan-2-yl (4-(1-(6-fluoro-1-methyl-[1,2,4]triazolo[4,3-a]quinazolin-5-yl)-1,2,3,4-tetrahydroquinolin-5-yl)-2-methylbut-3-yn-2-yl)carbamate] the same measures were 14.1 nM and 5.38 nM.
For `Cc1nnc2nc(N3CCCc4c(C#CC(C)(C)NC(=O)OC(C)(C)C)cccc43)c3c(F)cccc3n12` [Example 150, Tert-Butyl (4-(1-(6-fluoro-1-methyl-[1,2,4]triazolo[4,3-a]quinazolin-5-yl)-1,2,3,4-tetrahydroquinolin-5-yl)-2-methylbut-3-yn-2-yl)carbamate] the same measures were 11.5 nM and 2.48 nM.
In the case of `Cc1nnc2nc(N3CCCc4c(C#CC(C)(C)NC(=O)C5(C(F)(F)F)CC5)cccc43)c3c(F)cccc3n12` [Example 151, N-(4-(1-(6-fluoro-1-methyl-[1,2,4]triazolo[4,3-a]quinazolin-5-yl)-1,2,3,4-tetrahydroquinolin-5-yl)-2-methylbut-3-yn-2-yl)-1-(trifluoromethyl)cyclopropane-1-carboxamide], the IC50 in assay [1] turned out to be 2.41 nM. Also, the EC50 in assay [2] amounted to 3.59 nM.
